Measured values: ChEMBL document CHEMBL1158459, “Discovery of a peroxisome proliferator activated receptor gamma (PPARgamma) modulator with balanced PPARalpha activity for the treatment of type 2 diabetes and dyslipidemia” (J Med Chem, 2009)
The source made the active and inactive calls. The calls are words filed in the database; no cut-off is given here.

Assays:
[1] = target: T1, Peroxisome proliferator-activated receptor alpha (Homo sapiens, UniProt Q07869); experiment: Inhibition of human PPARalpha receptor by scintillation proximity assay
T1 sequence (Q07869 whole entry): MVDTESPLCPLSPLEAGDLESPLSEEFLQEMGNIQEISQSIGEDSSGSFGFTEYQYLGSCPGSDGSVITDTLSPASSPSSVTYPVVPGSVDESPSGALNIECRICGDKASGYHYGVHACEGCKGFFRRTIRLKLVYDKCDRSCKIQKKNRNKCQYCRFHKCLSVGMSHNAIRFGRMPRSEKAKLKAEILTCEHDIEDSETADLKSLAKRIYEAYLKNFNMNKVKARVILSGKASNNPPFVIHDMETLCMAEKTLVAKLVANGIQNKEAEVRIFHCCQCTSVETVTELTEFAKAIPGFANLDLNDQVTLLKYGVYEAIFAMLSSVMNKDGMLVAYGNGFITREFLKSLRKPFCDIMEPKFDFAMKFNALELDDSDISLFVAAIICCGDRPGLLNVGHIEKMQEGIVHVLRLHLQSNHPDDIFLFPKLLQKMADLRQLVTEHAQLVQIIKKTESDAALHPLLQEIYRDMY

[2] = target: T1, Peroxisome proliferator-activated receptor alpha; format: functional, cell-based, COS-1
Description: Agonist activity at human PPARalpha receptor expressed in african green monkey COS1 cells co-transfected with fused yeast Gal4-DBD by transactivation assay

[3] = target: T2, Peroxisome proliferator-activated receptor alpha (Mus musculus, UniProt P23204); experiment: Agonist activity at mouse PPARalpha receptor expressed in african green monkey COS1 cells co-transfected with fused yeast Gal4-DBD by transactivation assay; format: functional, cell-based, COS-1
T2 sequence (P23204 whole entry): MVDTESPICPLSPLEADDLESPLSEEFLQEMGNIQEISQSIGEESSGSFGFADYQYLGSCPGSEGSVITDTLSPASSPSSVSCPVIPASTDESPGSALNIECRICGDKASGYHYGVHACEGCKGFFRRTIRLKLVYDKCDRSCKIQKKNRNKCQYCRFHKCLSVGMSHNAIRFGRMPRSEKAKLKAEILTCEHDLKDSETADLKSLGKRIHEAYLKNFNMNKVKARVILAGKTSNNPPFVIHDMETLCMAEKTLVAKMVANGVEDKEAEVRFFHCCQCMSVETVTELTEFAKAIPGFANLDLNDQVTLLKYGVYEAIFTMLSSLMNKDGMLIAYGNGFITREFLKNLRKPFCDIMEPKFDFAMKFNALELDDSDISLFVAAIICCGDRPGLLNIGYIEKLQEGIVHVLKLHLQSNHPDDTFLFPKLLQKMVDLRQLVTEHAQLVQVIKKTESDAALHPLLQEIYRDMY

[4] = target: T3, Peroxisome proliferator-activated receptor gamma (Homo sapiens, UniProt P37231)
T3 sequence (P37231 whole entry): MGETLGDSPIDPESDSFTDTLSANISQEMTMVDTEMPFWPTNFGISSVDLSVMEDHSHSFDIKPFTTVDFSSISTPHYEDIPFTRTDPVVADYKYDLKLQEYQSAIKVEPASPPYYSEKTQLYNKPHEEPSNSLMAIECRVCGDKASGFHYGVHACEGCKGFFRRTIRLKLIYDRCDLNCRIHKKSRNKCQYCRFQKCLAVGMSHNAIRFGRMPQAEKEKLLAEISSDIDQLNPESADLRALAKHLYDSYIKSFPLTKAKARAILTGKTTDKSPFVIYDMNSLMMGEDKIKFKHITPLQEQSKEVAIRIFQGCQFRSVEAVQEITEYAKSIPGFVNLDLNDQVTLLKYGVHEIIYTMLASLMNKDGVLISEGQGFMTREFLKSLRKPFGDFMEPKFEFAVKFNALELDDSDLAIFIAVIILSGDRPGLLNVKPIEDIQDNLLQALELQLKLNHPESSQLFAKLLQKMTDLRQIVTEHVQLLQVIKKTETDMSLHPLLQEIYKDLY
Description: Inhibition of human PPARgamma receptor by scintillation proximity assay

[5] = target: T3, Peroxisome proliferator-activated receptor gamma; remark: listed apart in the source
Description: (§2) Agonist activity at human PPARgamma receptor expressed in african green monkey COS1 cells co-transfected with fused yeast Gal4-DBD by transactivation assay

[6] = (§1) AUC in rat at 2 mg/kg, po; format: ADME, organism-based, Plasma; parameters: dose 2 mg/kg, route oral; conditions: plasma
[7] = tested on: Mus musculus; experiment: Antidiabetic activity in C57BLKS/J-m+/+Leprdb db/db mouse assessed as reduction in plasma glucose levels at 10 mg/kg, po once daily for 11 days relative to control; format: functional; parameters: scale not given: the % may be the effect or the level left
[8] = tested on: Mus musculus; experiment: Antidiabetic activity in C57BLKS/J-m+/+Leprdb db/db mouse assessed as reduction in plasma triglyceride levels at 10 mg/kg, po once daily for 11 days relative to control; format: functional; parameters: scale not given: the % may be the effect or the level left
[9] = tested on: Canis familiaris; experiment: Antidiabetic activity in Beagle dog assessed as reduction in total cholesterol level at 4 mg/kg, po once daily for 14 days relative to control; format: functional, Canis lupus familiaris; parameters: scale not given: the % may be the effect or the level left
[10] = tested on: Rattus norvegicus; experiment: as §1; format: ADME, organism-based, Plasma; parameters: dose 2 mg/kg, route oral; conditions: in vivo
[11] = AUC in C57BLKS/J-m+/+Leprdb db/db mouse at 10 mg/kg, po once daily for 11 days; format: ADME, organism-based; parameters: dose 10 mg/kg, route oral; conditions: plasma
[12] = Cmax in C57BLKS/J-m+/+Leprdb db/db mouse at 10 mg/kg, po once daily for 11 days; format: ADME, organism-based; parameters: dose 10 mg/kg, route oral; conditions: in vivo
[13] = tested on: Mus musculus; experiment: Antidiabetic activity in high fat diet-fed streptozotocin-treated mouse assessed as reduction in plasma glucose levels at 5 mg/kg, po once daily for 12 days relative to control; format: functional; parameters: scale not given: the % may be the effect or the level left
[14] = tested on: Mus musculus; experiment: Antidiabetic activity in high fat diet-fed streptozotocin-treated mouse assessed as reduction in plasma glucose levels at 30 mg/kg, po once daily for 12 days relative to control; format: functional; parameters: scale not given: the % may be the effect or the level left
[15] = tested on: Rattus norvegicus; experiment: Antidiabetic activity in Zucker fa/fa rat assessed as decrease in triglyceride levels at 0.03 mg/kg, po once daily for 7 days; format: functional, organism-based; parameters: dose 0.03 mg/kg
[16] = tested on: Rattus norvegicus; experiment: Antidiabetic activity in Zucker fa/fa rat assessed as decrease in triglyceride levels at 0.3 mg/kg, po once daily for 7 days; format: functional, organism-based; parameters: dose 0.3 mg/kg
[17] = tested on: Rattus norvegicus; experiment: Antidiabetic activity in Zucker fa/fa rat assessed as decrease in triglyceride levels at 3 mg/kg, po once daily for 7 days; format: functional, organism-based; parameters: dose 3 mg/kg
[18] = tested on: Rattus norvegicus; experiment: Antidiabetic activity in Zucker fa/fa rat assessed as decrease in triglyceride levels at 15 mg/kg, po once daily for 7 days; format: functional, organism-based; parameters: dose 15 mg/kg
[19] = tested on: Rattus norvegicus; experiment: Antidiabetic activity in Zucker fa/fa rat assessed as decrease in triglyceride levels at 1 mg/kg, po once daily for 7 days; format: functional, organism-based; parameters: dose 1 mg/kg
[20] = tested on: Rattus norvegicus; experiment: Antidiabetic activity in Zucker fa/fa rat assessed as decrease in triglyceride levels at 10 mg/kg, po once daily for 7 days; format: functional, organism-based; parameters: dose 10 mg/kg
[21] = tested on: Rattus norvegicus; experiment: Antidiabetic activity in Zucker fa/fa rat assessed as decrease in triglyceride levels at 100 mg/kg, po once daily for 7 days; format: functional, organism-based; parameters: dose 100 mg/kg
[22] = tested on: Rattus norvegicus; experiment: Antidiabetic activity in po dosed Zucker fa/fa rat assessed as insulin lowering activity treated once daily for 7 days; format: functional
[23] = AUC in Sprague-Dawley rat at 150 mg/kg, po once daily for 14 days; format: ADME, organism-based; parameters: dose 150 mg/kg, route oral; conditions: plasma
[24] = tested on: Syrian golden hamster; experiment: Antidiabetic activity in Syrian golden hamster assessed as reduction in cholesterol level at 100 mg/kg, po once daily for 9 days relative to control; format: functional, Mesocricetus auratus; parameters: scale not given: the % may be the effect or the level left
[25] = tested on: Syrian golden hamster; experiment: Antidiabetic activity in Syrian golden hamster assessed as reduction in triglyceride level at 100 mg/kg, po once daily for 9 days relative to control; format: functional, Mesocricetus auratus; parameters: scale not given: the % may be the effect or the level left
[26] = AUC in Syrian golden hamster at 100 mg/kg, po once daily for 9 days; format: ADME, organism-based, Mesocricetus auratus; parameters: dose 100 mg/kg, route oral; conditions: plasma
[27] = tested on: Canis familiaris; experiment: Antidiabetic activity in Beagle dog assessed as reduction in total cholesterol level at 50 mg/kg, po once daily for 14 days relative to control; format: functional, Canis lupus familiaris; parameters: scale not given: the % may be the effect or the level left
[28] = AUC in Beagle dog at 50 mg/kg, po once daily for 14 days; format: ADME, organism-based, Canis lupus familiaris; parameters: dose 50 mg/kg, route oral; conditions: plasma
[29] = Cmax in Beagle dog at 50 mg/kg, po once daily for 14 days; format: ADME, organism-based, Canis lupus familiaris; parameters: dose 50 mg/kg, route oral; conditions: in vivo
[30] = AUC in Sprague-Dawley rat at 300 mg/kg, po once daily for 14 days; format: ADME, organism-based; parameters: dose 300 mg/kg, route oral; conditions: plasma
[31] = target: T3, Peroxisome proliferator-activated receptor gamma; conditions: cos-1
Description: as §2

Row | SMILES | IC50 [1] [µM] | EC50 [2] [µM] | EC50 [3] [µM] | IC50 [4] [µM] | EC50 [5] [µM] | AUC [6] [µM·h] | Activity [7] [%] | Activity [8] [%] | other results
1 | Cc1c(C(=O)c2ccc(Cl)cc2)c2ccc(OC(F)(F)F)cc2n1Cc1cccc(OCC(=O)O)c1 | > 15 | > 3 | 0.35 | 0.002 | 0.002 |  |  |  | 
2 | Cc1c(C(=O)c2ccc(Cl)cc2)c2ccc(OC(F)(F)F)cc2n1Cc1cccc(O[C@@H](C)C(=O)O)c1 | > 15 | 4.89 | > 3 |  |  | 0.6 | 53 | 4 | 
3 | CCC(C)(C)C(=O)O[C@H]1C[C@@H](C)C=C2C=C[C@H](C)[C@H](CC[C@@H]3C[C@@H](O)CC(=O)O3)[C@H]21 [SIMVASTATIN] |  |  |  |  |  |  |  |  | Activity [9]: 18.4%
4 | CCC[C@H](Oc1cccc(Cn2c(C)c(C(=O)c3ccc(Cl)cc3)c3ccc(OC(F)(F)F)cc32)c1)C(=O)O | > 50 | > 3 | > 3 | 0.008 | 0.001 | 1.2 | 22 | 8 | 
5 | CC[C@@](C)(Oc1cccc(Cn2c(C)c(C(=O)c3ccc(Cl)cc3)c3ccc(OC(F)(F)F)cc32)c1)C(=O)O (stereo in doubt; 12j) | 0.764 | 0.129 | > 1 | 0.005 | 0.002 |  |  |  | AUC [10]: 2.8 µM·h; Activity ([7]; 10 mg/kg): 45%; Activity ([8]; 10 mg/kg): 3%
6 | Cc1c(C(=O)c2ccc(Cl)cc2)c2ccc(OC(F)(F)F)cc2n1Cc1cccc(O[C@@H](C(=O)O)C(C)C)c1 | 0.491 | 0.002 | 0.04 | 0.01 | 0.002 | 3.5 | 101 | 87 | 
7 | Cc1c(C(=O)c2ccc(Cl)cc2)c2ccc(OC(F)(F)F)cc2n1Cc1cccc(O[C@H](C)C(=O)O)c1 | > 15 | 0.32 | 0.028 | 0.011 | 0.004 | 1.1 | 105 | 90 | 
8 | CCc1ccc(CCOc2ccc(CC3SC(=O)NC3=O)cc2)nc1 (stereo unspecified) [PIOGLITAZONE] |  |  |  |  |  |  | 53 | 65 | AUC at 264 h [11]: 180 µM·h
9 | Cc1c(Cc2cccc(OCC(=O)O)c2)c2cc(OC(F)(F)F)ccc2n1C(=O)c1ccc(Cl)cc1 | > 15 | > 3 | > 3 | 0.001 | 0.003 |  |  |  | 
10 | CCC[C@@H](Oc1cccc(Cn2c(C)c(C(=O)c3ccc(Cl)cc3)c3ccc(OC(F)(F)F)cc32)c1)C(=O)O | > 15 | 0.38 | 0.11 | 0.012 | 0.01 | 1.7 | 94 | 80 | 
11 | CN(CCOc1ccc(CC2SC(=O)NC2=O)cc1)c1ccccn1 (stereo unspecified) [ROSIGLITAZONE] |  |  | > 3 |  |  | 16.4 | 76 | 71 | Cmax [12]: 68 µM; Activity [13]: 36%; Activity [14]: 45%; Activity [15]: Active; Activity [16]: Active; Activity [17]: Active; Activity [18]: Active; Activity [19]: Active; Activity [20]: Active; Activity [21]: Active; ED50 [22]: 25 µM·h; AUC at 336 h [23]: 600 µM·h
12 | CC(C)OC(=O)C(C)(C)Oc1ccc(C(=O)c2ccc(Cl)cc2)cc1 [FENOFIBRATE] |  |  |  |  |  |  |  |  | Activity [24]: 22.7%; Activity [25]: 33.7%; AUC at 216 h [26]: 1800 µM·h; Activity [27]: 17%; AUC at 336 h [28]: 117 µM·h; Cmax [29]: 15 µM; AUC at 336 h [30]: 5600 µM·h
13 | CC[C@@](C)(Oc1cccc(Cn2c(C)c(C(=O)c3ccc(Cl)cc3)c3ccc(OC(F)(F)F)cc32)c1)C(=O)O (stereo in doubt; 12i) | 0.087 | 0.107 |  | 0.009 |  |  |  |  | AUC [10]: 1.3 µM·h; EC50 ([3]; cos-1): > 1 µM; Activity ([7]; 10 mg/kg): 71%; Activity ([8]; 10 mg/kg): 51%; EC50 [31]: 0.002 µM
14 | Cc1c(C(=O)c2ccc(Cl)cc2)c2ccc(OC(F)(F)F)cc2n1Cc1cccc(OC2(C(=O)O)CCC2)c1 | 1.08 | 0.185 | 0.15 | 0.016 | 0.012 |  |  |  | 
15 | Cc1c(C(=O)c2ccc(Cl)cc2)c2ccc(OC(F)(F)F)cc2n1Cc1cccc(O[C@H](C(=O)O)C(C)C)c1 | 2.98 | 0.37 | 0.36 | 0.017 | 0.021 | 1.5 | 76 | 37 | 
16 | CC[C@H](Oc1cccc(Cn2c(C)c(C(=O)c3ccc(Cl)cc3)c3ccc(OC(F)(F)F)cc32)c1)C(=O)O | > 15 | 0.5 | > 3 | 0.004 | 0.006 |  | 22 | 7 | 
